In patent US20240115557A1, “INHIBITORS OF RNA-GUIDED NUCLEASES AND USES THEREOF” (The Brigham and Women's Hospital, Inc., priority 2022, published 2024):

Assays:
U2OS.eGFP.PEST cells [1] = experiment: eGFP fluorescence counter assay in absence of SpCas9:gRNA; type: cell-based, human
Method: FIG. 73A-73E Counter assays to validate BRD7586 in cells FIG. 73A,B Immunoblotting analysis of SpCas9 expression in (A) HEK293T cells or (B) U20S.eGFP.PEST cells transfected with SpCas9 plasmid were incubated with BRD7586 for 24 h (n=2 or 3 independent experiments). p>0.05 for BRD7586 at […] compared to DMSO in U20S.eGFP.PEST cells (paired t test, two-tailed) FIG. 73C Changes in the fluorescence intensity in the presence of BRD7586 in U20S.eGFP.PEST. Cells were treated with the compound for 24 h, and the fluorescence was measured to calculate the fraction of GFP-positive populations. Means from 3 independent experiments are shown. […] Error bars represent SD from 3 independent experiments. For SpCas9, p≤0.01 for BRD7586 at 15 μM compared to DMSO. For LbCas12a, p>0.05 for BRD7586 at 15 μM compared to DMSO in all experiments (unpaired t test, two-tailed).

U2OS.eGFP.PEST cells [2] = experiment: CellTiter-Glo cell viability assay, U2OS.eGFP.PEST; type: cell-based, human; settings: 24 h
Method: HEK293T cells or U2OS.eGFP.PEST cells were plated in a 96-well plate at the density of 30,000 cells per well or 20,000 cells per well, respectively. The next day, cells were treated with indicated amount of compounds for 24 h. Then, cellular ATP levels were measured using CellTiter-Glo Luminescent Cell Viability Assay (Promega) with an EnVision Multilabel Plate Reader (PerkinElmer) at the integration time of 0.5 s per well.

SpCas9 = SpCas9 (Streptococcus pyogenes serotype M1, UniProt Q99ZW2); experiment: Target engagement in live cells (photo-crosslinking, pull-down); type: cell-based; settings: HEK293T, 20 μM probe, 20 μM competitor
Sequence of SpCas9 (Q99ZW2 whole entry): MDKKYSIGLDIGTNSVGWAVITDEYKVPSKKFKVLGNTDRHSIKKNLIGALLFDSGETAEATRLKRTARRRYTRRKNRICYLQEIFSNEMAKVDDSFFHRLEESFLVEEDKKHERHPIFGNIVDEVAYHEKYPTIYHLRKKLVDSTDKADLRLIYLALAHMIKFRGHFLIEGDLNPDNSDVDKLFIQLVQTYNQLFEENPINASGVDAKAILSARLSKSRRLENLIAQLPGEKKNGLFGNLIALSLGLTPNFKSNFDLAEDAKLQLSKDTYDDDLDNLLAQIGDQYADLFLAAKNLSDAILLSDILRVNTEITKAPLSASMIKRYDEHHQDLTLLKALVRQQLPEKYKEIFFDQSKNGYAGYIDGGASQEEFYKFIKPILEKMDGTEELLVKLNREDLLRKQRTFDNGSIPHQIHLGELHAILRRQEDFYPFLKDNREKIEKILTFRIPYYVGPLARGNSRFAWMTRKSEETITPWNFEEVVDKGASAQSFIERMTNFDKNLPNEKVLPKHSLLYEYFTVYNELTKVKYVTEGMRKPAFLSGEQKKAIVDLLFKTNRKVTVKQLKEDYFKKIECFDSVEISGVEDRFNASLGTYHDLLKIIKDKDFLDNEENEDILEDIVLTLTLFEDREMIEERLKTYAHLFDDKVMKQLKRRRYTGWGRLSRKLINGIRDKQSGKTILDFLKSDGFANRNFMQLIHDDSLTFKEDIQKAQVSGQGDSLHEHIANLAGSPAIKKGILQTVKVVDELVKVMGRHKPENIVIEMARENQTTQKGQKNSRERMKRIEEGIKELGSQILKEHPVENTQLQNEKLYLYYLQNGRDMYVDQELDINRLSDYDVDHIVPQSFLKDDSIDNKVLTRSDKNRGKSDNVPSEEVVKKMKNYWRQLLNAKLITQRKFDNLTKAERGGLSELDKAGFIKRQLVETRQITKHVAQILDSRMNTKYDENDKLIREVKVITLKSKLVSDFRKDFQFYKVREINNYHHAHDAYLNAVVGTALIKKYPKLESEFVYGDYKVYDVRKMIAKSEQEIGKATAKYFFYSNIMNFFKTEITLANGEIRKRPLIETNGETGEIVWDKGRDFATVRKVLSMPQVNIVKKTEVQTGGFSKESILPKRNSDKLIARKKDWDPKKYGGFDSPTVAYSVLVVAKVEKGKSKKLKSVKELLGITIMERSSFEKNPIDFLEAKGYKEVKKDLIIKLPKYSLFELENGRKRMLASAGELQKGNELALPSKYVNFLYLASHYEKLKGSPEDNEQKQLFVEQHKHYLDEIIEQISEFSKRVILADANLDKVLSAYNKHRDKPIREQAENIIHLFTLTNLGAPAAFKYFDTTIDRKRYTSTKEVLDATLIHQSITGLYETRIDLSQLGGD
Method: HEK293T cells were plated in a 6-well plate (400,000 cells/well). The next day, cells were transfected with […] of Cas9 expression plasmid (pX330, Addgene #42230)^51 using Lipofectamine 3000 (Invitrogen). Eight hours after transfection, cells were split into 4 wells of a 12-well plate. Total 24 h after transfection, cells were treated with DMSO, Diazirine-BRD7586 (20 μM), or Diazirine-BRD7586 with BRD7586 (both at 20 μM) for 2 h. Cells were washed with PBS once, and 500 μL of fresh PBS was added to each well. The plate was placed on ice, and cells were irradiated with UV (365 nm) for 15 min. After the removal of PBS, cells were stored at−80° C. until further analysis. Thawed cells were suspended in a lysis buffer (25 mM HEPES, 50 mM KCl, 1% Triton X-100, 1× protease inhibitor cocktail, pH 7.4, 200 μL per well), and a brief sonication was performed to ensure cell lysis. Next, click chemistry was performed with 100 μM of biotin-azide, 350 μM of Cu-TBTA, and 1.5 mM of ascorbate. The reaction was proceeded for 2 h at room temperature with mild rotation, then proteins were precipitated by the addition of cold methanol (5-fold volume of the reaction mixture) to the mixture and keeping at −80° C. for >2 h. Protein pellet was obtained by centrifugation for 10 min at 16,000 g and 4° C. […]

SpCas9 expression = experiment: Immunoblotting of SpCas9 expression; type: cell-based; settings: HEK293T and U2OS.eGFP.PEST, 24 h
Method: Approximately 500,000 U20S.eGFP.PEST cells were nucleofected as described above with 500 ng of SpCas9 plasmid. Then, cells were plated in a 12-well plate with indicated amount of compound, and incubated for 24 h. HEK293T cells were transfected with 500 ng SpCas9 plasmid as described above, and incubated with the compound for 24 h in a 24-well plate. Cells were harvested and lysed by RIPA buffer containing Protease Inhibitor Cocktail (Roche). Lysate was cleared by centrifugation at 20,000 g in 4° C., and the supernatant was taken to measure the protein concentration using BCA assay. Approximately […] of the total protein was used for immunoblotting. Rabbit anti-SpCas9 (Abcam #89380, 1:1,000 dilution) and mouse anti-a-tubulin (CST #3873, 1:2,000 dilution) were used as primary antibodies. IRDye 680RD Donkey anti-Rabbit IgG (LI-COR #925-68073, 1:10,000 dilution) and IRDye 800CW Donkey anti-Mouse IgG (LI-COR #925-32212, 1:10,000 dilution) were used as secondary antibodies.

For `O=C(CCS(=O)(=O)c1ccc(Cl)cc1)Nc1nc(-c2ccncc2)cs1` [BRD7586], the “Effect on eGFP expression in the absence of SpCas9:gRNA” value (U2OS.eGFP.PEST cells [1]) was “without affecting the eGFP expression”, the Cytotoxicity (U2OS.eGFP.PEST cells [2]) was “without introducing cytotoxicity” and the “Target engagement in live cells” value (SpCas9) was “demonstrating target engagement in live cells”. The “Effect on SpCas9 expression” value (SpCas9 expression) was “without altering its expression”.
